According to patent publication US9682928B2 (NeuroPro Therapeutics, Inc., priority 2009, dated 2017):
“Also recorded” adds a separate entry of the source.

Tests used:
in vivo = settings: dog
NKCC1 = molecular target: T1, NKCC1 (Homo sapiens, UniProt P55011); assay: NKCC1 Rb+ influx assay in human adult skin fibroblasts; format: cell-based
T1 construct: endogenous in cells; host or cells: human adult skin fibroblasts (primary culture)
Experimental: The protocol may be done in accordance with Panet and Alan The Journal of Cell Biology, Volume 114, Number 2, July 1991 337-342. Human adult skin fibroblasts were seeded at 3 concentrations: 3000/5000/10 000 on 96 well culture plates with DMEM supplemented with 10% FCS and 4 mM glutamine (37° C., CO2). Medium was replaced with DMEM supplemented with 0.2% FCS, 4 mM glutamine and 20 mM HEPES (37° C., CO2). The NKCC assay may be performed according the standard operating procedure as described in Chassande, et al. (1988) “The Na+/K+/CI^− cotransport in C6 glioma cells.” Eur. J. Biochem. 171: 425-433.
This allows for the administration of the compounds described herein described herein without unwanted diuretic side effects.

[1] = Tolerability after oral administration; format: in vivo
[2] = molecular target: T2, α1β3γ2 GABAA receptor isoform (Homo sapiens, UniProt P14867+P18507+P28472); assay: Whole-cell patch clamp, transfected HEK-293T cells; format: cell-based, rat or human; settings: 10 μM NTP-2014
T2 construct: expressed in transfected cells; host or cells: HEK-293T, transient transfection
T2 sequence (P14867 28-456): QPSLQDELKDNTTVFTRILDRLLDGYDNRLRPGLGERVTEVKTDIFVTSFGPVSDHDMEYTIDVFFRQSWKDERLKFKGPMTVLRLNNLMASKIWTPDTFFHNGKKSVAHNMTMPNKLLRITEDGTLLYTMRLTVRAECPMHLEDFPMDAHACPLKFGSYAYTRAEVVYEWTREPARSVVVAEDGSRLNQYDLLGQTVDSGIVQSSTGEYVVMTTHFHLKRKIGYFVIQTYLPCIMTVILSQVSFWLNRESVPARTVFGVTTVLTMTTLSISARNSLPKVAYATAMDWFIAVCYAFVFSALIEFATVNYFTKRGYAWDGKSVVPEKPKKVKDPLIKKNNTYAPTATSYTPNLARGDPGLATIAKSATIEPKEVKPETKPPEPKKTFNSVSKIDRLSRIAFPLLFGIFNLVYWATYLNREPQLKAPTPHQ
T2 sequence (P28472 26-473): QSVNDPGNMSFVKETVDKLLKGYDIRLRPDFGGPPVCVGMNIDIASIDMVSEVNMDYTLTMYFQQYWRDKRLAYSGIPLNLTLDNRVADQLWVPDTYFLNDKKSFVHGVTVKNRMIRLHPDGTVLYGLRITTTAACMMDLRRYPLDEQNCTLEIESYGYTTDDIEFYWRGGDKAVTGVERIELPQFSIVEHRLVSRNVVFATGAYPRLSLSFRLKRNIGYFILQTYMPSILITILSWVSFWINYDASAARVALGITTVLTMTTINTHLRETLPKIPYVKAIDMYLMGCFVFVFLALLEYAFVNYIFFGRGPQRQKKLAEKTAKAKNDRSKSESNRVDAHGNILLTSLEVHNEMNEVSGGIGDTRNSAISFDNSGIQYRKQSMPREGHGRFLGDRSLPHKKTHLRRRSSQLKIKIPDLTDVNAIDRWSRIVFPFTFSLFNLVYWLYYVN
T2 sequence (P18507 40-475): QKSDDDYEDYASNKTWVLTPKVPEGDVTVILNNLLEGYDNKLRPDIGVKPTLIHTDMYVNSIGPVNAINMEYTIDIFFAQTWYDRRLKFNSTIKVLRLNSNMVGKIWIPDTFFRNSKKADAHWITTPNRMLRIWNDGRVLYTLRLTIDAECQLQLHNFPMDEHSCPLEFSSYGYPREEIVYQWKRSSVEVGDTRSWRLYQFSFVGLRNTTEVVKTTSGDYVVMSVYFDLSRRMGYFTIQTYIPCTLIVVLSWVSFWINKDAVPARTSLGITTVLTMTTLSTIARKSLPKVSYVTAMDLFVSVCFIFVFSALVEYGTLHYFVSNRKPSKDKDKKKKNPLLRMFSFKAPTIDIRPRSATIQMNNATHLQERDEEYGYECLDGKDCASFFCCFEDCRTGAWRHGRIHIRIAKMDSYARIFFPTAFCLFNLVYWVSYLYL
Experimental: (§1) The addition of GABA to […] activates the recombinant expressed GABAA receptors, creating an ion movement through the ion channel in the GABAA receptor. The electrical current generated by the movement of chloride ions into the cells can be quantified.
(§2) HEK-293T cells were transiently transfected with rat or human GABAA receptor subunits. Whole-cell patch clamp recording was performed at −50 mV unless otherwise indicated. Test compounds was diluted from a freshly made stock in DMSO, GABA was prepared from a frozen stock. For each experiment GABA or GABA+a test compound was applied for 5 seconds, and the electrical current generated by the movement of chloride ions into the cells was measured and recorded as a trace of current versus time.
(§3) Compounds described herein (e.g., NTP-2014) were tested at high and low GABA concentrations against multiple GABAA receptor isoforms (e.g., α1β3γ2, α2β3 γ2, α3β3γ2, α3β3γ2, α4β3γ2, α5β3γ2, α6β3γ2). […] NTP-2014 inhibits the currents in the parasynaptic α4 GABAA receptor isoform in GABAergic interneurons. […]

[3] = molecular target: T3, α2β3γ2 GABAA receptor isoform (Homo sapiens, UniProt P18507+P28472+P47869); assay: Whole-cell patch clamp, transfected HEK-293T cells; format: cell-based, rat or human; settings: 10 μM NTP-2014; 1 μM and 100 μM GABA
T3 construct: expressed in transfected cells; host or cells: HEK-293T, transient transfection
T3 sequence (P47869 29-451): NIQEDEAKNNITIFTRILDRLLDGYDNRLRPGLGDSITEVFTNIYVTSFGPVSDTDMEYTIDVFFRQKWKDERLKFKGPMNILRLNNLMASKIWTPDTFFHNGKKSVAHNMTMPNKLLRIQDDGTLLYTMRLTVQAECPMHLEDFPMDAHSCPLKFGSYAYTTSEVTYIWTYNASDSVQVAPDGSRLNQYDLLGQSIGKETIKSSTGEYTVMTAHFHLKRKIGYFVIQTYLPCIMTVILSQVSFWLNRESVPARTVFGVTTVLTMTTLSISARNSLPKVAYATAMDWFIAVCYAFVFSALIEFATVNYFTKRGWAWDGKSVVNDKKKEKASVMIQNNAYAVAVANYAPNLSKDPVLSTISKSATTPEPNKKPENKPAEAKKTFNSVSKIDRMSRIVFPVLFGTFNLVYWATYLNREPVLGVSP
T3 sequence (P28472 26-473): as the sequence (P28472 26-473) above
T3 sequence (P18507 40-475): as the sequence (P18507 40-475) above
Experimental: as §1, §2, §3

[4] = molecular target: T4, α3β3γ2 GABAA receptor isoform (Homo sapiens, UniProt P18507+P28472+P34903); assay: Whole-cell patch clamp, transfected HEK-293T cells; format: cell-based, rat or human; settings: 10 μM NTP-2014; 1 μM and 100 μM GABA
T4 construct: expressed in transfected cells; host or cells: HEK-293T, transient transfection
T4 sequence (P34903 29-492): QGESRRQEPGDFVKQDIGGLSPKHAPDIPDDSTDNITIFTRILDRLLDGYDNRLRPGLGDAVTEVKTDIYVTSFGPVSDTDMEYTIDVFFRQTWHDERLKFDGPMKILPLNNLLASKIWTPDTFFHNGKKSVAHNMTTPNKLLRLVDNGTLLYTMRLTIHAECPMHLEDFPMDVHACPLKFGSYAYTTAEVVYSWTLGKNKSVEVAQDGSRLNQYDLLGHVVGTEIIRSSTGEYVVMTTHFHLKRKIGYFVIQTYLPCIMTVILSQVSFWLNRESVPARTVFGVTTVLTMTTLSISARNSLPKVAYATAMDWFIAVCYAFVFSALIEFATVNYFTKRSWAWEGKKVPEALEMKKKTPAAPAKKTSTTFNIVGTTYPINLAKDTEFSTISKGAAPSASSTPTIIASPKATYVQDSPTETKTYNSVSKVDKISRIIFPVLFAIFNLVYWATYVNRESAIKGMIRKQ
T4 sequence (P28472 26-473): as the sequence (P28472 26-473) above
T4 sequence (P18507 40-475): as the sequence (P18507 40-475) above
Experimental: as §1, §2, §3

[5] = molecular target: T5, α6β3γ2 GABAA receptor isoform (Homo sapiens, UniProt P18507+P28472+Q16445); assay: Whole-cell patch clamp, transfected HEK-293T cells; format: cell-based, rat or human
T5 construct: expressed in transfected cells; host or cells: HEK-293T, transient transfection
T5 sequence (Q16445 20-453): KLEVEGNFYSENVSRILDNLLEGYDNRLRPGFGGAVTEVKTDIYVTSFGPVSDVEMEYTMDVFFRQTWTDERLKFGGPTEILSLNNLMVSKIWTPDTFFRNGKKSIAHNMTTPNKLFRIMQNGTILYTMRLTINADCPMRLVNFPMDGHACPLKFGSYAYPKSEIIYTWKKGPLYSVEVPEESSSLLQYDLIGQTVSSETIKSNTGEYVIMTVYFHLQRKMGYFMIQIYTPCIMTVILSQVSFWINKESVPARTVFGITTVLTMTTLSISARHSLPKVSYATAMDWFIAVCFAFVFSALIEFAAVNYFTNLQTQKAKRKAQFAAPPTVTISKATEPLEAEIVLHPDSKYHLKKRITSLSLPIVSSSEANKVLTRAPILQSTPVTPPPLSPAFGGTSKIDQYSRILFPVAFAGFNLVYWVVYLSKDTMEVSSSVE
T5 sequence (P28472 26-473): as the sequence (P28472 26-473) above
T5 sequence (P18507 40-475): as the sequence (P18507 40-475) above
Experimental: as §1, §2, §3

mouse = settings: literature data; cited from earlier work
rats = assay: Fear potentiated startle (FPS) test in rats; format: in vivo, rat; settings: i.v.; furosemide 100 mg/kg, bumetanide 70 mg/kg
Experimental: FPS is a commonly used assessment of therapeutic value of anxiolytic compounds in the rat. Rats received a 30 min period of habituation to the FPS apparatus. 24-hr later baseline startle amplitudes were collected. The rats will be divided into two matched groups based on baseline startle amplitudes. Following baseline startle amplitude collection 20 light/shock pairings were delivered on 2 sessions over 2 consecutive days (i.e., 10 light/shock pairings per day). On the final day, one group of rats received an injection (i.v.) of a bumetanide analog and the other group received vehicle only. Immediately following injections, startle amplitudes were assessed during startle alone trials and startle plus fear (light followed by startle) trials. Fear potentiated startle (light+startle amplitudes minus startle alone amplitudes) was compared between the treatment groups.
Animals were trained and tested in four identical stabilimeter devices (Med-Associates). Briefly, each rat was placed in a small Plexiglas cylinder. The floor of each stabilimeter consists of four 6-mm-diameter stainless steel bars spaced 18 mm apart through which shock can be delivered. Cylinder movements result in displacement of an accelerometer where the resultant voltage is proportional to the velocity of the cage displacement. Startle amplitude is defined as the maximum accelerometer voltage that occurs during the first 0.25 sec after the startle stimulus is delivered. The analog output of the accelerometer is amplified, digitized on a scale of 0-4096 units and stored on a microcomputer. Each stabilimeter is enclosed in a ventilated, light-, and sound-attenuating box. All sound level measurements were made with a Precision Sound Level Meter. The noise of a ventilating fan attached to a sidewall of each wooden box produces an overall background noise level of 64 dB. The startle stimulus is a 50 ms burst of white noise (5 ms rise-decay time) generated by a white noise generator. The visual conditioned stimulus used was illumination of a light bulb adjacent to the white noise source. The unconditioned stimulus was a 0.6 mA foot shock with duration of 0.5 sec, generated by four constant-current shockers located outside the chamber. The presentation and sequencing of all stimuli were under the control of the microcomputer.
FPS procedures consisted of 5 days of testing; during days 1 and 2 baseline startle responses were collected, days 3 and 4 light/shock pairings were delivered, day 5-testing for fear potentiated startle was conducted.
Matching. On the first two days all rats were placed in the Plexiglas cylinders and 3 min later presented with 30 startle stimuli at a 30 sec interstimulus interval. An intensity of 105 dB was used. […]

T1 sequence (P55011 whole entry): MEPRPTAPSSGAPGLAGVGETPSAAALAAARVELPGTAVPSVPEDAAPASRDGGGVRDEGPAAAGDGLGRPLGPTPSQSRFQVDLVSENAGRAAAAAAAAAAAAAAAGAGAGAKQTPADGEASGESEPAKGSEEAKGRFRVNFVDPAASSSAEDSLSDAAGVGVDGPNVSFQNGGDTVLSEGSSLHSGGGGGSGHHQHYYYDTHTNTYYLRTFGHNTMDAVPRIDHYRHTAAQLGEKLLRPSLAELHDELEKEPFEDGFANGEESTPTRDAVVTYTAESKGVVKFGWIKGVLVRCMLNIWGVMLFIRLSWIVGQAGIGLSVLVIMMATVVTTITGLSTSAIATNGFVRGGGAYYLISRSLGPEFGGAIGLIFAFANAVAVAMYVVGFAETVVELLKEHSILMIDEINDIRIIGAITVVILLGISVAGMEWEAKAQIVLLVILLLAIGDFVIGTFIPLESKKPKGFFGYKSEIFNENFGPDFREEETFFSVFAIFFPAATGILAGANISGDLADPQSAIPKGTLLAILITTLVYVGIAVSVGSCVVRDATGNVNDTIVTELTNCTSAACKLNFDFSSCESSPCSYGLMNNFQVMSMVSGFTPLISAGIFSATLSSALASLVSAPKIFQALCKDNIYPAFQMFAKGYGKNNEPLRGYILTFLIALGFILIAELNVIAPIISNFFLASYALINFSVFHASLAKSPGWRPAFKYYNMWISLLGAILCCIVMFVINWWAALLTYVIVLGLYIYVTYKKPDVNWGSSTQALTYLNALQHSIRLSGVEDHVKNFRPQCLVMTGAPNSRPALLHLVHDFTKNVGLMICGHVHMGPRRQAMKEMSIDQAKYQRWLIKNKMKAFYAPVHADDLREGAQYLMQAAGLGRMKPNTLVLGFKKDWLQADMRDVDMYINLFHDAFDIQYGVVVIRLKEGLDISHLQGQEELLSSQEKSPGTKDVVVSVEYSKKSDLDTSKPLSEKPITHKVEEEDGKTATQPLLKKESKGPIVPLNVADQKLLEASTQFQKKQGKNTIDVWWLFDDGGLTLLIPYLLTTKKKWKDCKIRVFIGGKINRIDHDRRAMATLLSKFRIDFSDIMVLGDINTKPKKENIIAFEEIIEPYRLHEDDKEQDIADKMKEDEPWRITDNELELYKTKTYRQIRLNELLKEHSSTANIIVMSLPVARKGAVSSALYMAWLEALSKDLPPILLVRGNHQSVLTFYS

| SMILES | NOAEL at 14 day (in vivo) [mg/kg] | Inhibition of NKCC1 in the presence of a co-transporter activating mitogen (FGF) (NKCC1) | Inhibition of NKCC1 chloride transport (NKCC1; primary cell cultures) | CNS side effects ([1]; after oral administration) | Toxicological tolerability ([1]; in vivo) | Effect on current, α1β3γ2 GABAA receptor isoform [2] | Effect on current, α2 containing isoform [3] | Effect on current, α3 containing isoform [4] | Effect on currents, α6 containing receptors ([5]; 0.1, 1, 10 μM GABA) | EC50 ([5]; FIG. 41C, read-out: EC50 in α6 containing GABAA receptor isoforms) [µM] | IC50 ([5]; read-out: IC50, receptors containing the α6 subunit) [µM] | Activity in early phase formalin paw test (mouse) | Activity in late phase formalin paw test (mouse) | Difference score on the test day vs vehicle alone (rats) | Difference score one week after treatment vs vehicle alone (rats) |
| --- | --- | --- | --- | --- | --- | --- | --- | --- | --- | --- | --- | --- | --- | --- | --- |
| CCCCN(CCCC)c1cc(C(=O)O)cc(S(N)(=O)=O)c1Oc1ccccc1 [NTP-2014, 3-Aminosulfonyl-5-N,N-dibutylamino-4-phenoxybenzoic acid] | 4.5 | did not inhibit | no inhibition | no CNS side effects | well-tolerated | no significant activation; also recorded: amplitude of the current was not increased | slowed the decay rate; also recorded: inhibited | slowed the decay rate; also recorded: inhibited | inhibited by NTP-2014 at higher GABA concentrations, but unaffected at lower GABA concentrations | 20.2 | 10 to 30 |  |  |  |  |
| CCCCNc1cc(C(=O)O)cc(S(N)(=O)=O)c1Oc1ccccc1 [Bumetanide, reference compound] |  |  |  |  |  |  |  |  |  |  |  | has little | is active in late phase | statistically significantly lower difference score | higher difference score |
